Results reported in PubChem BioAssay AID278 (DTP/NCI, 2004).
Values joined by “and” are separate entries in the source; they are usually repeats but may differ in a detail not shown here. Equal entries are not always repeated. Inconclusive results are not listed.

Tested on: nude mice, A549 intrarenal xenograft, tumor weight change
Assay: NCI In Vivo Anticancer Drug Screen. Data for tumor model A549 Human Adenocarcinoma of Lung with characteristics of Type II Alveolar Epithelial cells (intrarenal inoculation) in NU/NU BALB/C (nude) mice
Conditions: endpoint: mean tumor weight change, higher = larger tumour
Method in brief: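 Mice bearing transplantable tumors were treated and survival or tumor size recorded. Values are given as treated-group measurement divided by vehicle-control measurement (T/C).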

[1] = dose: 150.0 mg/kg/injection, schedule: Q04DX003 (ip), vehicle: Klucel (hydroxypropylcellulose) (HPC)
[2] = dose: 300.0 mg/kg/injection, schedule: Q04DX003 (ip), vehicle: Klucel (hydroxypropylcellulose) (HPC)

With c1ccc([Te][Te]c2ccccc2)cc1 the T/C (dose: 9.38 mg/kg/injection, schedule: Q04DX003 (ip), vehicle: saline with Tween-80) was 71 % of control, the T/C (dose: 18.75 mg/kg/injection, schedule: Q04DX003 (ip), vehicle: saline with Tween-80) was 59 % of control and the T/C (dose: 37.5 mg/kg/injection, schedule: Q04DX003 (ip), vehicle: saline with Tween-80) was 122 % of control.

For NC(=O)c1[nH]cnc1O, the T/C (dose: 150.0 mg/kg/injection, schedule: Q04DX003 (ip), vehicle: saline with Tween-80) was 151 % of control.

With Nc1ccn([C@@H]2C=C(CO)[C@@H](O)[C@H]2O)c(=O)n1 the T/C (dose: 0.67 mg/kg/injection, schedule: Q01DX009 (ip), vehicle: saline) was 58 % of control, the T/C (dose: 1.0 mg/kg/injection, schedule: Q01DX009 (ip), vehicle: saline) was 20 % of control and 40 % of control and the T/C (dose: 1.5 mg/kg/injection, schedule: Q01DX009 (ip), vehicle: saline) was -59 % of control. For the same compound, the T/C (dose: 2.0 mg/kg/injection, schedule: Q01DX009 (ip), vehicle: saline) was 8 % of control.

CN(Cc1cnc2nc(N)nc(N)c2n1)c1ccc(C(=O)N[C@@H](CCC(=O)O)C(=O)O)cc1 was tested, and the T/C (dose: 27.0 mg/kg/injection, schedule: Q04DX003 (ip), vehicle: sodium bicarbonate) was 100 % of control.

In the case of O=C1CC2(C(=O)N1CN1CCOCC1)c1ccccc1-c1ccccc12, the T/C [1] was 36 % of control, the T/C (dose: 216.0 mg/kg/injection, schedule: Q04DX003 (ip), vehicle: Klucel (hydroxypropylcellulose) (HPC)) was 21 % of control and the T/C [2] was 28 % of control. The T/C (dose: 360.0 mg/kg/injection, schedule: Q04DX003 (ip), vehicle: Klucel (hydroxypropylcellulose) (HPC)) was 23 % of control and the T/C (dose: 600.0 mg/kg/injection, schedule: Q04DX003 (ip), vehicle: Klucel (hydroxypropylcellulose) (HPC)) was 11 % of control.

In the case of CCC(=O)[O][Bi]([c]1ccccc1)[c]1ccccc1, the T/C (dose: 6.25 mg/kg/injection, schedule: Q04DX003 (ip), vehicle: Klucel (hydroxypropylcellulose) (HPC)) was 79 % of control, the T/C (dose: 12.5 mg/kg/injection, schedule: Q04DX003 (ip), vehicle: Klucel (hydroxypropylcellulose) (HPC)) was 49 % of control and the T/C (dose: 25.0 mg/kg/injection, schedule: Q04DX003 (ip), vehicle: Klucel (hydroxypropylcellulose) (HPC)) was 43 % of control.

For O=C(NC(Cc1ccc(I)cc1)C(=O)O)c1cccc(Br)c1 (stereo unspecified), the T/C (dose: 100.0 mg/kg/injection, schedule: Q04DX003 (ip), vehicle: Klucel (hydroxypropylcellulose) (HPC)) was 99 % of control, the T/C [1] was 35 % of control and the T/C (dose: 200.0 mg/kg/injection, schedule: Q04DX003 (ip), vehicle: Klucel (hydroxypropylcellulose) (HPC)) was 45 % of control. For the same compound, the T/C [2] was 35 % of control.

In the case of Cc1nc(C(Cl)(Cl)Cl)[nH]c(=O)c1SCCO, the T/C (dose: 150.0 mg/kg/injection, schedule: Q04DX003 (ip), vehicle: distilled water + Tween-80 + alcohol) was 31 % of control, the T/C (dose: 150.0 mg/kg/injection, schedule: Q04DX003 (ip), vehicle: distilled water + alcohol) was 50 % of control and the T/C (dose: 300.0 mg/kg/injection, schedule: Q04DX003 (ip), vehicle: distilled water + Tween-80 + alcohol) was 181 % of control. The T/C (dose: 300.0 mg/kg/injection, schedule: Q04DX003 (ip), vehicle: distilled water + alcohol) was 26 % of control and the T/C (dose: 600.0 mg/kg/injection, schedule: Q04DX003 (ip), vehicle: distilled water + alcohol) was 2 % of control.

For O=C1CNC(=O)N1CN1CCOCC1, the T/C [1] was 198 % of control and the T/C [2] was 69 % of control.

CCOc1ccc(C(C)c2cc3c(cc2OC)OCO3)cc1 (stereo unspecified) was tested, and the T/C (dose: 100.0 mg/kg/injection, schedule: Q04DX003 (ip), vehicle: distilled water + Tween-80) was 61 % of control, the T/C (dose: 200.0 mg/kg/injection, schedule: Q04DX003 (ip), vehicle: distilled water + Tween-80) was 59 % of control and the T/C (dose: 400.0 mg/kg/injection, schedule: Q04DX003 (ip), vehicle: distilled water + Tween-80) was 63 % of control.

With Cc1nc2c(N)cc(Cl)cc2[nH]1 the T/C (dose: 100.0 mg/kg/injection, schedule: Q04DX003 (ip), vehicle: saline with Tween-80) was 89 % of control and the T/C (dose: 200.0 mg/kg/injection, schedule: Q04DX003 (ip), vehicle: saline with Tween-80) was 95 % of control.

S=C(N/N=C1/CCCC/C1=N/NC(=S)N1CCOCC1)N1CCOCC1 was tested, and the T/C (dose: 6.25 mg/kg/injection, schedule: Q04DX003 (ip), vehicle: saline with Tween-80) was 71 % of control, the T/C (dose: 12.5 mg/kg/injection, schedule: Q04DX003 (ip), vehicle: saline with Tween-80) was 27 % of control and the T/C (dose: 25.0 mg/kg/injection, schedule: Q04DX003 (ip), vehicle: saline with Tween-80) was 37 % of control. The T/C (dose: 50.0 mg/kg/injection, schedule: Q04DX003 (ip), vehicle: saline with Tween-80) was 82 % of control.

CC(/C=C/C=C/C=C/C=C/C=C/C(O)=C1/C(=O)C(CCC(=O)O)N(C)C1=O)=C\C(C)C(OC1CC(O)C(O)C(C)O1)C(C)C (stereo unspecified) was tested, and the T/C (dose: 15.88 mg/kg/injection, schedule: Q04DX003 (ip), vehicle: water) was 60 % of control, the T/C (dose: 31.75 mg/kg/injection, schedule: Q04DX003 (ip), vehicle: water) was 61 % of control and the T/C (dose: 62.5 mg/kg/injection, schedule: Q04DX003 (ip), vehicle: water) was 110 % of control. The T/C (dose: 75.0 mg/kg/injection, schedule: Q04DX003 (ip), vehicle: water) was 37 % of control.
